Values of other authors as cited in patent US8124767B2, “Luminescence biotin-transition metal complex conjugate, and method of amplifying signal using the same” (Samsung Electronics Co., Ltd., priority 2008, dated 2012).
pKd: −log10 of the molar value. Read-outs that look alike come from different tables or passages of the source.

Tests used:
[1] = excitation 310 nm, 0.02 mM 2-MeTHF, cited from earlier work
[2] = biological target: T1, avidin (Gallus gallus, UniProt P02701); conditions: HABA, comparison value; read-out: Kd (binding to avidin); cited from earlier work
T1 construct: purchased Aldrich
T1 sequence (P02701 25-152): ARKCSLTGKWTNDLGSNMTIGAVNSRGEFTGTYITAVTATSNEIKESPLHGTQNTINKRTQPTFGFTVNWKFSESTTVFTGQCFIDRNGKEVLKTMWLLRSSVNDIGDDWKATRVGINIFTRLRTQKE

SMILES	T360 nm, lifetime of the donor peak ([1]; 77 K)	T411 nm, lifetime of the donor peak ([1]; 77 K)	T360 nm, lifetime of the donor peak ([1]; 298 K)	pKd [2]
Cc1cc(-n2c3ccccc3c3ccccc32)cc(-n2c3ccccc3c3ccccc32)c1 [Probe 5mCP]	8.2 ns	7.0 s	6.6 ns	–
O=C(O)c1ccccc1N=Nc1ccc(O)cc1 [HABA, 4,4′-hydroxyazobenzene-2-carboxylic acid]	–	–	–	5.22
